Reference: PMC4457528, “Identification of Novel Small Molecule Inhibitors of Oncogenic RET Kinase” (PLoS ONE, 2015)
Like-named read-outs stand apart in the source and are kept apart here.

What was measured:
Assay in all cases: KinomeScan kinase panel, single concentration 10 µM
Type in all cases: binding
KinomeScan kinase panel [1] = target: T1, KinomeScan kinase panel (Homo sapiens, UniProt P00519, Q252H); conditions: 10 µM, read-out: score (%)
T1 construct: purchased DiscoveRx (KinomeScan)

KinomeScan kinase panel [2] = target: T2, KinomeScan kinase panel (Homo sapiens, UniProt Q00535); conditions: CDK5, 10 µM; read-out: score (%)
T2 construct: purchased DiscoveRx (KinomeScan)

KinomeScan kinase panel [3] = target: T3, KinomeScan kinase panel (Homo sapiens, UniProt P54760); conditions: EPHB4, 10 µM; read-out: score (%)
T3 construct: purchased DiscoveRx (KinomeScan)
T3 sequence (P54760 16-987): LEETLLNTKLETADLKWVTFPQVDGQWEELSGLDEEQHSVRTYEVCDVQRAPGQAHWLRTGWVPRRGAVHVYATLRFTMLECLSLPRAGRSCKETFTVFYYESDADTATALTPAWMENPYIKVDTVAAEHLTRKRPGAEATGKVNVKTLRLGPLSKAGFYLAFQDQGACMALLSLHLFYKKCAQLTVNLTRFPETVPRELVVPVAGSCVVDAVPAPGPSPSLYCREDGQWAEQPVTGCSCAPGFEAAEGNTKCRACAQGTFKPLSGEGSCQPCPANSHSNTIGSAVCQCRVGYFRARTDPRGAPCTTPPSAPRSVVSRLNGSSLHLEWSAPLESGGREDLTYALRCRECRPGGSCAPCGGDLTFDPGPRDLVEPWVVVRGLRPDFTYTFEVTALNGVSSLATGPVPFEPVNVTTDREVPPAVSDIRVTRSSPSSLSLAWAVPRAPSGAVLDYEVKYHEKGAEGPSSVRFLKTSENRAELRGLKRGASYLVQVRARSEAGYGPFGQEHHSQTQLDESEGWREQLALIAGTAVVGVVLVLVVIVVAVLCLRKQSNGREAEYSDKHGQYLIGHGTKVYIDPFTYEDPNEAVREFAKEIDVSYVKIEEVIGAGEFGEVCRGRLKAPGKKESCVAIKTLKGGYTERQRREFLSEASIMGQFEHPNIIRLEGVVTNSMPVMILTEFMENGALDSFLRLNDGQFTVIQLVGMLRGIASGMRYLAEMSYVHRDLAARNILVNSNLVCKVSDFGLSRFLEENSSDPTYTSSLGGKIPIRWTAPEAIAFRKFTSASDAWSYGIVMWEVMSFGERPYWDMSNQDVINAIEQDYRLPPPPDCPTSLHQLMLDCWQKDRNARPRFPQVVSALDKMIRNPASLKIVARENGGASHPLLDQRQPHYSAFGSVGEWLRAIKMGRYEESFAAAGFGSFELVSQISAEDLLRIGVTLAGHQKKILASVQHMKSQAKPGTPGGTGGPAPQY

KinomeScan kinase panel [4] = target: T4, KinomeScan kinase panel (Homo sapiens, UniProt P24941); conditions: CDK2, 10 µM
T4 construct: purchased DiscoveRx (KinomeScan)

KinomeScan kinase panel [5] = target: T5, KinomeScan kinase panel (Homo sapiens, UniProt P31749); conditions: AKT1, 10 µM; read-out: score (%)
T5 construct: purchased DiscoveRx (KinomeScan)

KinomeScan kinase panel [6] = target: T6, KinomeScan kinase panel (Homo sapiens, UniProt Q15418); conditions: 10 µM, read-out: score (%)
T6 construct: purchased DiscoveRx (KinomeScan)

KinomeScan kinase panel [7] = target: T7, KinomeScan kinase panel (Homo sapiens, UniProt Q9Y243); conditions: AKT3, 10 µM; read-out: score (%)
T7 construct: purchased DiscoveRx (KinomeScan)

KinomeScan kinase panel [8] = target: T8, KinomeScan kinase panel (Homo sapiens, UniProt Q8IVH8); conditions: MAP4K3, 10 µM
T8 construct: purchased DiscoveRx (KinomeScan)
T8 sequence (Q8IVH8 1-894): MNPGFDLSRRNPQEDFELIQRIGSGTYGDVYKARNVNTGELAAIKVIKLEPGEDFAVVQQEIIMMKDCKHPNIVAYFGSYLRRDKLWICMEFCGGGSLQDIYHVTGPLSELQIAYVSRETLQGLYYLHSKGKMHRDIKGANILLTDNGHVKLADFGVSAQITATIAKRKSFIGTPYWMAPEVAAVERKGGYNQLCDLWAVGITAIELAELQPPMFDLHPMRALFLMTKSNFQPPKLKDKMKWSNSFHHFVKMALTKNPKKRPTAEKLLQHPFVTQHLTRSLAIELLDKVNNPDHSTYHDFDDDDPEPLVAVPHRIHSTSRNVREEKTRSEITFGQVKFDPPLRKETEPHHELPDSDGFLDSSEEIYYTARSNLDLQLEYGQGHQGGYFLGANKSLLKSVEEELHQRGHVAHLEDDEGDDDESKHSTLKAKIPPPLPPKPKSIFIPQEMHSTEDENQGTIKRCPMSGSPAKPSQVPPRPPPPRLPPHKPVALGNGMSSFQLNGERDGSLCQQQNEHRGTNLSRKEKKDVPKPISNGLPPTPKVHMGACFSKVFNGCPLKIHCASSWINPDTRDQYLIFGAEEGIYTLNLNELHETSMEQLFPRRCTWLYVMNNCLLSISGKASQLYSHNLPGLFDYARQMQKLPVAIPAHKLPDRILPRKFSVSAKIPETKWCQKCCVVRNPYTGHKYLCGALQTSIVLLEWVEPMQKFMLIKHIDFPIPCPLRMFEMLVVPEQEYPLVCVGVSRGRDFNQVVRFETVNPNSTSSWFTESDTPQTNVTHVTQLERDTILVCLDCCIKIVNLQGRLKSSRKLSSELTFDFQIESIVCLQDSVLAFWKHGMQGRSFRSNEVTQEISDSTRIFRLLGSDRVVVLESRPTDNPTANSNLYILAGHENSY

KinomeScan kinase panel [9] = target: T9, KinomeScan kinase panel (Homo sapiens, UniProt P28482); conditions: ERK2, 10 µM; read-out: score (%)
T9 construct: purchased DiscoveRx (KinomeScan)

KinomeScan kinase panel [10] = target: T10, KinomeScan kinase panel (Homo sapiens, UniProt P36896); conditions: ACVR1B, 10 µM; read-out: score (%)
T10 construct: purchased DiscoveRx (KinomeScan)
T10 sequence (P36896 24-505): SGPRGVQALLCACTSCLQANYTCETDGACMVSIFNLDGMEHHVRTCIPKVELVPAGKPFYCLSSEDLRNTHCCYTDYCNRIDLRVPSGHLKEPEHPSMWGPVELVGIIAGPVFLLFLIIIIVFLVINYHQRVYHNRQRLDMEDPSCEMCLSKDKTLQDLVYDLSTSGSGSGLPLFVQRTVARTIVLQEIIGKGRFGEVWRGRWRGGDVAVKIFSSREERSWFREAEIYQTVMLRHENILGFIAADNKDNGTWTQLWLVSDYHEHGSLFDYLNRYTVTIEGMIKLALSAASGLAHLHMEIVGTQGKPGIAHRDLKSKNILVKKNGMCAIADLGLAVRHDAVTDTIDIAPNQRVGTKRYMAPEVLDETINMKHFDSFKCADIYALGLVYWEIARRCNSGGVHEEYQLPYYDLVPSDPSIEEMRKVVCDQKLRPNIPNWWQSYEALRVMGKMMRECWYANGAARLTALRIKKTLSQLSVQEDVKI

T6 sequence (Q15418 whole entry): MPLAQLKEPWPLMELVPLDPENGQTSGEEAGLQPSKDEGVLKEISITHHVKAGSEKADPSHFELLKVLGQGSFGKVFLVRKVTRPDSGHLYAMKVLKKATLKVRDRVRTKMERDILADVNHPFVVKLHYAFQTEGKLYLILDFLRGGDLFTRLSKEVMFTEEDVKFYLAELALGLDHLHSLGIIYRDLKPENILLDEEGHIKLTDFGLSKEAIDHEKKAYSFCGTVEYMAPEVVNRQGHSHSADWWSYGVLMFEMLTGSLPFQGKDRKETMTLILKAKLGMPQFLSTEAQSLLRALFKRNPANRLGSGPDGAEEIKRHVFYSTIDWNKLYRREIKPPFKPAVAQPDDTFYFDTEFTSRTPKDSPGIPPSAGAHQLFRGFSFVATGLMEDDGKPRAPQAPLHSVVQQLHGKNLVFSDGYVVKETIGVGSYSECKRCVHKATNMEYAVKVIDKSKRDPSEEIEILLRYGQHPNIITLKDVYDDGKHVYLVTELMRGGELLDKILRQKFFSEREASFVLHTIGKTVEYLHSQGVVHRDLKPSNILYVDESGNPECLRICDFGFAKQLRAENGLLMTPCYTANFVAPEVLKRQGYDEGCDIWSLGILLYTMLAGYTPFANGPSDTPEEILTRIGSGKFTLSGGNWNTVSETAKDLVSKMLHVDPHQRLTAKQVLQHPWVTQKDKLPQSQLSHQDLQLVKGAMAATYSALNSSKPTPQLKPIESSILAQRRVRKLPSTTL
T5 sequence (P31749 whole entry): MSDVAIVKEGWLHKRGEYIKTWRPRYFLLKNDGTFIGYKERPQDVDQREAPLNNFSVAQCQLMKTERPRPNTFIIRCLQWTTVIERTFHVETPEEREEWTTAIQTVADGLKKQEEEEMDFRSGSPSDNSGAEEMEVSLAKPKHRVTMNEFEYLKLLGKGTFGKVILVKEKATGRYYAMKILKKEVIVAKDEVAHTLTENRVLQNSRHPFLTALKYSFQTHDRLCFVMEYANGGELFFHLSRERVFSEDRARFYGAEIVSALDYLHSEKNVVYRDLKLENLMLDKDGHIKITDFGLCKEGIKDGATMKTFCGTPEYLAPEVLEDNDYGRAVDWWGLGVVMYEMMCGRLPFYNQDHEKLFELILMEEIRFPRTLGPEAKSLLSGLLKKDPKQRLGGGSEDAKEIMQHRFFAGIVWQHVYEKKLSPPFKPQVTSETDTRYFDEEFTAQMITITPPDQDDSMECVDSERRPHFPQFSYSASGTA
T9 sequence (P28482 whole entry): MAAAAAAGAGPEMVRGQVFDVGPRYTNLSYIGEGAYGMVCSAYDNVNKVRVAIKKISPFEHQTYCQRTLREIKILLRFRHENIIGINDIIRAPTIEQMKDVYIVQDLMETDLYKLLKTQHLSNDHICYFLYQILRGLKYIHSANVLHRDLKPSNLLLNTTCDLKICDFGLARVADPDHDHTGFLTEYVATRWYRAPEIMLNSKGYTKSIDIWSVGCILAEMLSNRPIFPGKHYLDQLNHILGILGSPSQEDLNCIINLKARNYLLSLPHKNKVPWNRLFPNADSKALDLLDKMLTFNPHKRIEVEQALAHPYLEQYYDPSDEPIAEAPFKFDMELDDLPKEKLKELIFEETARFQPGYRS
T2 sequence (Q00535 whole entry): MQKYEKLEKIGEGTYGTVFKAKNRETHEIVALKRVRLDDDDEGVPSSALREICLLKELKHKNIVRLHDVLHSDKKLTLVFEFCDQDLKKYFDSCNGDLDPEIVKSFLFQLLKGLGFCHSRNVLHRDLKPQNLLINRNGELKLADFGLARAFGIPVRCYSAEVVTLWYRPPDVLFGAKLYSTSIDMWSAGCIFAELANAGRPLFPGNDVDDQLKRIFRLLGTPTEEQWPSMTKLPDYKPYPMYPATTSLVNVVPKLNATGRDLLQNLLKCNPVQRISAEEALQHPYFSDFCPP
T7 sequence (Q9Y243 whole entry): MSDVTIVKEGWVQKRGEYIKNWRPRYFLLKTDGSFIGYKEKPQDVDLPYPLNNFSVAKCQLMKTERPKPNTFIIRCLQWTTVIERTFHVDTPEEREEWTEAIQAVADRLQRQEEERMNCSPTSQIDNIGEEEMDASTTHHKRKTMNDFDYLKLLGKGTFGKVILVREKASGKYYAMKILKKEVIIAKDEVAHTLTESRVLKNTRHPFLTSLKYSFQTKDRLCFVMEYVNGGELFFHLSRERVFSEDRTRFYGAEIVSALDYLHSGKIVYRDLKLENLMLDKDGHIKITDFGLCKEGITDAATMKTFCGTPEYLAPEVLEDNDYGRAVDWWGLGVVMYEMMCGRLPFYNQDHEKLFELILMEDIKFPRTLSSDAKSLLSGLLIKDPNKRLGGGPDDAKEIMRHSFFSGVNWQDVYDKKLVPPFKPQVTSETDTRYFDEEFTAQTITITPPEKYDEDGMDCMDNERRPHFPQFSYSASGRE

| remaining binding at 10 µM (KinomeScan kinase panel [6]; RPS6KA1(Kin.Dom.1)) | remaining binding at 10 µM (KinomeScan kinase panel [6]; RPS6KA1(Kin.Dom.2)) | SMILES | remaining binding at 10 µM (KinomeScan kinase panel [1]; ABL1(Q252H)) | remaining binding at 10 µM (KinomeScan kinase panel [2]) | remaining binding at 10 µM (KinomeScan kinase panel [3]) | score (%) (KinomeScan kinase panel [4]) | remaining binding at 10 µM (KinomeScan kinase panel [5]) | remaining binding at 10 µM (KinomeScan kinase panel [6]; RPS6KA1(Kin.Dom.1-N-terminal)) | remaining binding at 10 µM (KinomeScan kinase panel [6]; RPS6KA1(Kin.Dom.2-C-terminal)) | remaining binding at 10 µM (KinomeScan kinase panel [7]) | score (%) (KinomeScan kinase panel [8]) | remaining binding at 10 µM (KinomeScan kinase panel [9]) | remaining binding at 10 µM (KinomeScan kinase panel [10]) | remaining binding at 10 µM (KinomeScan kinase panel [1]; ABL1(Q252H)-nonphosphorylated) | remaining binding at 10 µM (KinomeScan kinase panel [1]; ABL1(Q252H)-phosphorylated) | remaining binding at 10 µM (KinomeScan kinase panel [6]; kinase RSK1(Kin.Dom.1-N-terminal)) | remaining binding at 10 µM (KinomeScan kinase panel [6]; kinase RSK1(Kin.Dom.2-C-terminal)) |
| --- | --- | --- | --- | --- | --- | --- | --- | --- | --- | --- | --- | --- | --- | --- | --- | --- | --- |
|  |  | CCN1CCN(Cc2ccc(NC(=O)c3ccc(C)c(NC(=O)c4cncc(-c5cccs5)c4)c3)cc2C(F)(F)F)CC1 [ALW-II-41-27] | 0.25% | > 30% | 0.55% | nb (Hits values higher than 30% were considered negative (no binding: nb)) | 4.4% | > 30% | > 30% | 20% | 20% | > 30% | > 30% |  |  |  |  |
| > 30% | > 30% | CCN1CCN(Cc2ccc(NC(=O)c3ccc(C)c(/C=C/c4cnc5[nH]ccc5c4Cl)c3)cc2C(F)(F)F)CC1 [HG-6-63-01, (E)-3-(2-(4-chloro-1H-pyrrolo[2,3-b]pyridin-5-yl)vinyl)-N-(4-((4-ethylpiperazin-1-yl)methyl)-3-(trifluoromethyl)phenyl)-4-methylbenzamide] | 0.1% | > 30% | 5.7% | nb (Hits values higher than 30% were considered negative (no binding: nb)) | > 30% |  |  | > 30% | 4.2% | > 30% | > 30% |  |  |  |  |
|  |  | CCN1CCN(Cc2ccc(NC(=O)c3ccc(C)c(C#Cc4cccnc4)c3)cc2C(F)(F)F)CC1 [XMD15-44] |  | 10% | 1.6% | 10% | > 30% |  |  | > 30% | 2.6% | > 30% | > 30% | 6.4% | 0.7% | 53% | 7.2% |
